Laboratory results as given in patent US20200330447A1, “CANCER TREATMENT VIA REPOSITIONED TRICYCLIC ANTI-DEPRESSANT-LIKE DRUGS AS ANTI-CANCER AGENTS AND NEW COMBINATIONS OF SUCH DRUGS” (Board of Supervisors of Louisiana State University and …, priority 2015, published 2020).

What was measured:
Type in all cases: cell-based
LC3-II = assay: Autophagy: LC3-I/LC3-II western blot and GFP-LC3II microscopy; details: A172 cells, overnight; for levels of LC3-II, western blot: deptropine 5 or 10 micromolar, pizotifen 5 micromolar; for association of GFP-LC3-II with puncta representing autophagosomes: microscopy
Method: A further embodiment of this technology is the use of deptropine and pizotifen to induce autophagy. A172 cells were treated with EIPA (1), Serum (2), Serum Free (3), DMSO (4, solvent control), rapamycin 0.5 micromolar (5), one micromolar (6), deptropine at 5 micromolar (7), 10 micromolar (8) or pizotifen at 5 micromolar (9) overnight and GFP-LC3II was visualized by microscopy or western blot analysis was performed to detect LC3-I and LC3-II forms.

U373 glioma cell lines = assay: Lysosome outward movement in U373 cells; details: method of FIG. 2
Method: (§1) A172 glioblastoma cells were treated overnight with 5 or 10 μM deptropine or pizotifen or with the deptropine or pizotifen in combination at 5 μM concentration. The next day, media was change to low pHe media containing deptropine or pizotifen and the cells were incubated for an additional 2 h. EIPA is a known inhibitor of lysosomal outward movement and represents the positive control. At the end of the incubation time, cells were fixed and stained for LAMP-1, filamentous actin and nuclei. Representative merged IF images depicting the effect of pHe 7.4, pHe 6.4, DMSO or deptropine and pizotifen on the distribution of lysosomes in A172 glioblastoma cells. On color versions of the Figure, red puncta are lysosomes, blue is nuclei and green is actin. As could be seen, lysosomes appear more peripherally distributed in A172 glioma cells than in cells treated with concentrations of 5 to 10 micromolar deptropine or pizotifen.
In an additional experiment, following the method whose results are shown in FIG. 2 above but with different cells, the broad range and general effectiveness of deptropine and pizotifen is shown beyond just in A172 glioblastoma cells. Specifically, deptropine and pizotifen were applied to U373 glioma cell lines instead of A172 glioblastoma cells.

A172 glioblastoma cells [1] = assay: Wound motility (migration) assay, Incucyte; details: for motility: 5 or 10 μM, 8 h prior to wounding; for motility (percent migration), single drug: either drug alone at 10 μM
Method: An important aspect of this technology is the showing that deptropine and pizotifen block tumor invasion using 3D assays. […] For this experiment A172 glioblastoma cells were treated with 5 or 10 μM deptropine or pizotifen or drug mix at 5 μM concentration for 8 h prior to the wounding and the addition of matrigel. Upon wounding, cells were allowed to migrate or invade through matrigel in the presence of DMSO, 5 or 10 μM deptropine or pizotifen or the drug mix at 5 μM concentration. EIPA, a known inhibitor of lysosomal outward movement, is the positive control. Motility and invasion were calculated by Incucyte platform that acquires real time images of invasion and motility and calculate the relative wound density percentage at different time points. Percent migration (FIG. 6A) or invasion (FIG. 6B) through matrigel in A172 glioblastoma cells in the presence of DMSO, 5 or 10 μM deptropine or pizotifen or the drug mix at 5 μM concentration. Error bars represent s.e.m. of 5 separate experiments. # statistical significance, p<0.001, versus both 1% FBS and DMSO; *, p<0.01 versus both 1% FBS and DMSO

Erk signaling pathway = assay: Lysosome inward movement in the presence of the MAPK inhibitor U0126, and Erk western blot; details: A172 cells, results not shown
Method: Turning to FIG. 8, deptropine and pizotifen are shown to act through the Erk signaling pathway. In this experiment, A172 cells were treated with deptropine and pizotifen at 5 μM concentrations for 4 hours in the presence of the MAPK inhibitor U0126. I.F. microscopy was then performed. This helped allow the determination of the mechanism of action of deptropine and pizotifen.

A172 glioblastoma cells [2] = assay: Acidic media pH induced lysosome distribution, LAMP-1 IF imaging; details: for acidic media induced trafficking of lysosomes to the cell periphery: 5 or 10 μM overnight, then low pHe media with drug 2 h; for lysosomal outward movement, early time: 5 or 10 μM, 2 h then low pHe media with drugs 2 h (4 hours); for inward movement of lysosomes, single drug: one micromolar alone
Method: as §1
Cells were treated as described above with FIG. 2 but included a concentration of 0.1 micromolar and 1 micromolar deptropine and pizotifen.
Turning to FIG. 7, an additional aspect of this technology is how quickly deptropine and pizotifen act to move lysosomes towards the nucleus. […] A172 glioblastoma cells were treated with the 5 or 10 μM deptropine or pizofifen for 2 h and then with low pHe media containing the drugs for an additional 2 hours. At the end of incubation time, cells were fixed and stained for LAMP-1, filamentous actin, and nuclei. Representative merged IF images depicting the effect of DMSO, 5 and 10 μM deptropine or pizotifen upon 4 hours on the distribution of lysosomes, colored red in color images, in A172 glioblastoma cells. Also shown in color images are actin, colored green, and nuclei, colored blue.

Row | SMILES | levels of LC3-II, western blot (LC3-II) | association of GFP-LC3-II with puncta representing autophagosomes (LC3-II) | lysosome outward movement (U373 glioma cell lines) | motility (A172 glioblastoma cells [1]) | motility (percent migration), single drug (A172 glioblastoma cells [1]) | Erk signaling pathway, western blot (Erk signaling pathway) | acidic media induced trafficking of lysosomes to the cell periphery (A172 glioblastoma cells [2]) | lysosomal outward movement, early time (A172 glioblastoma cells [2]) | inward movement of lysosomes, single drug (A172 glioblastoma cells [2])
1 | CN1[C@@H]2CC[C@H]1C[C@@H](OC1c3ccccc3CCc3ccccc31)C2 [deptropine, 3a-[(10, 11-dihydro-5H-dibenzo[a,d]cyclohepten-5-yl)oxy]1aH,5aH-tropane] | increases the levels of the proteins LC3-II | increase the association GFP-LC3-II with puncta | block lysosome outward movement | decrease | reduces motility but to a level that is determined to be significant | activate the Erk signaling pathway | blocks acidic media induced trafficking of lysosomes to the cell periphery | prevent lysosomal outward movement | only a marginal effect
2 | CN1CCC(=C2c3ccccc3CCc3sccc32)CC1 [pizotifen, 4-(1-methyl-4-piperidylidine)-9,10-dihydro-4H-benzo-[4,5]cyclohepta[1,2]-thiophene] | increases the levels of the proteins LC3-II | increase the association GFP-LC3-II with puncta | block lysosome outward movement | decrease | reduces motility but to a level that is determined to be significant | activate the Erk signaling pathway | blocks acidic media induced trafficking of lysosomes to the cell periphery | prevent lysosomal outward movement | only a marginal effect
